Reference: PubChem BioAssay AID200 (DTP/NCI, 2004)
“And” between values parts separate entries of the source, which are not always exact repeats. Equal values may be shown once. Toxic doses and inconclusive results are not listed.

System: B6C3F1 mice, B16 melanoma ip, median survival T/C
Assay: NCI In Vivo Anticancer Drug Screen. Data for tumor model B16 Melanoma (intraperitoneal) in B6C3F1 mice
Settings: endpoint: median survival time, schedule: Q01DX009 (ip), higher = longer survival
Outline: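 Antitumor effect was judged in mice with transplanted tumors by dividing the treated group's survival measure by that of vehicle controls.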

[1] = dose: 50.0 mg/kg/injection, vehicle: saline + Tween-80 + alcohol
[2] = dose: 100.0 mg/kg/injection, vehicle: saline with Tween-80
[3] = dose: 200.0 mg/kg/injection, vehicle: saline with Tween-80
[4] = dose: 6.25 mg/kg/injection, vehicle: saline with Tween-80
[5] = dose: 12.5 mg/kg/injection, vehicle: saline with Tween-80
[6] = dose: 25.0 mg/kg/injection, vehicle: saline with Tween-80
[7] = dose: 50.0 mg/kg/injection, vehicle: saline with Tween-80
[8] = dose: 2.5 mg/kg/injection, vehicle: saline
[9] = dose: 25.0 mg/kg/injection, vehicle: saline
[10] = dose: 3.13 mg/kg/injection, vehicle: saline with Tween-80

In the case of O=C1CCCCC1C(=O)C(F)(F)F (stereo unspecified), the T/C (dose: 4.5 mg/kg/injection, vehicle: saline + Tween-80 + alcohol) is reported as 103 % of control, the T/C (dose: 9.0 mg/kg/injection, vehicle: saline + Tween-80 + alcohol) is reported as 93 % of control and the T/C (dose: 18.0 mg/kg/injection, vehicle: saline + Tween-80 + alcohol) is reported as 87 % of control. The T/C [1] was 102 % of control.
For C=CCNC(=O)c1ccccc1SC(C)=O, the T/C [1] was 101 % of control, the T/C (dose: 100.0 mg/kg/injection, vehicle: saline + Tween-80 + alcohol) was 112 % of control and 103 % of control and the T/C [2] was 91 % of control. The T/C (dose: 200.0 mg/kg/injection, vehicle: saline + Tween-80 + alcohol) was 119 % of control, the T/C [3] was 104 % of control and the T/C (dose: 400.0 mg/kg/injection, vehicle: saline + Tween-80 + alcohol) was 114 % of control. The T/C (dose: 400.0 mg/kg/injection, vehicle: saline with Tween-80) was 116 % of control.
With C/C=C/c1cc2c(c(=O)o1)C(=O)[C@@H](O)[C@H](C)O2 the T/C [4] was 98 % of control, the T/C [5] was 103 % of control and the T/C [6] was 100 % of control. For the same compound, the T/C [7] was 118 % of control, the T/C [2] was 109 % of control and the T/C [3] was 103 % of control.
With O=C1N[C@H]2[C@H](O)[C@H](O)[C@@H](O)[C@H](O)[C@@H]2c2cc3c(c(O)c21)OCO3 the T/C (dose: 1.5 mg/kg/injection, vehicle: saline + alcohol) was 100 % of control, the T/C (dose: 1.56 mg/kg/injection, vehicle: saline + alcohol) was 108 % of control and the T/C (dose: 3.0 mg/kg/injection, vehicle: saline + alcohol) was 103 % of control. For the same compound, the T/C (dose: 6.0 mg/kg/injection, vehicle: saline + alcohol) was 114 % of control and the T/C (dose: 6.25 mg/kg/injection, vehicle: saline + alcohol) was 110 % of control.
In the case of CC(C)=CCC/C(C)=C\C=N\NS(=O)(=O)c1ccc([N+](=O)[O-])cc1, the T/C [4] is reported as 89 % of control, the T/C [5] is reported as 93 % of control and the T/C [6] is reported as 100 % of control. For the same compound, the T/C [7] was 94 % of control.
In the case of Nc1ccc(Cl)c2ccccc12, the T/C [6] is reported as 99 % of control, the T/C [7] is reported as 103 % of control and the T/C [2] is reported as 109 % of control.
For C=C(OC)C(Nc1cc(OC)c(OC)cc1C(=O)OC1CC(O[C@@H]2C(=O)C(NC(=O)OC)=C3/C(=C\CSSSC)[C@]2(O)C#C/C=C\C#C[C@@H]3OC2OC(C)C(NOC3CC(O)C(SC)C(C)O3)C(O)C2OC2CC(OC)C(NCCC)CO2)OC(C)C1O)OC (stereo partly specified), the T/C (dose: 0.16 micrograms/kg/injection, vehicle: saline + alcohol) was 191 % of control, the T/C (dose: 0.32 micrograms/kg/injection, vehicle: saline + alcohol) was 162 % of control and the T/C (dose: 0.63 micrograms/kg/injection, vehicle: saline + alcohol) was 170 % of control. The T/C (dose: 2.5 nanograms/kg/injection, vehicle: saline + alcohol) was 119 % of control, the T/C (dose: 4.0 nanograms/kg/injection, vehicle: saline + alcohol) was 93 % of control and the T/C (dose: 5.0 nanograms/kg/injection, vehicle: saline + alcohol) was 109 % of control. The T/C (dose: 14.0 nanograms/kg/injection, vehicle: saline + alcohol) was 102 % of control, the T/C (dose: 20.0 nanograms/kg/injection, vehicle: saline + alcohol) was 155 % of control and the T/C (dose: 24.0 nanograms/kg/injection, vehicle: saline + alcohol) was 103 % of control. For the same compound, the T/C (dose: 40.0 nanograms/kg/injection, vehicle: saline + alcohol) was 219 % of control and 101 % of control, the T/C (dose: 66.67 nanograms/kg/injection, vehicle: saline + alcohol) was 96 % of control and the T/C (dose: 111.11 nanograms/kg/injection, vehicle: saline + alcohol) was 97 % of control.
For CCC12C[N+]3([O-])CCc4c([nH]c5ccccc45)C(C(=O)OC)(c4cc5c(cc4OC)N(C)C4C(O)(C(=O)OC)C(OC(C)=O)C6(CC)C=CCN7CCC54C76)CC(C3)C1O2 (stereo unspecified), the T/C (dose: 0.62 mg/kg/injection, vehicle: water) was 112 % of control, the T/C (dose: 1.25 mg/kg/injection, vehicle: water) was 104 % of control and 107 % of control and the T/C [8] was 185 % of control. The T/C (dose: 5.0 mg/kg/injection, vehicle: saline) was 246 % of control, the T/C (dose: 5.0 mg/kg/injection, vehicle: water) was 108 % of control and 261 % of control and the T/C (dose: 10.0 mg/kg/injection, vehicle: saline) was 373 % of control. The T/C (dose: 10.0 mg/kg/injection, vehicle: water) was 121 % of control and 309 % of control.
C=C1C(=O)C2=CC1CCC(=O)C1(C)CCC(OC(C)=O)C(C)(C)C1CC2O (stereo unspecified) was tested, and the T/C (dose: 1.88 mg/kg/injection, vehicle: Klucel (hydroxypropylcellulose) (HPC)) was 96 % of control, the T/C (dose: 3.75 mg/kg/injection, vehicle: Klucel (hydroxypropylcellulose) (HPC)) was 104 % of control and 106 % of control and the T/C (dose: 7.5 mg/kg/injection, vehicle: Klucel (hydroxypropylcellulose) (HPC)) was 111 % of control and 89 % of control. The T/C (dose: 15.0 mg/kg/injection, vehicle: Klucel (hydroxypropylcellulose) (HPC)) was 114 % of control and 100 % of control and the T/C (dose: 30.0 mg/kg/injection, vehicle: Klucel (hydroxypropylcellulose) (HPC)) was 118 % of control and 104 % of control.
With ClCCCN1CCN(CCCl)CC1 the T/C (dose: 1.25 mg/kg/injection, vehicle: saline) was 98 % of control and the T/C [8] was 124 % of control and 99 % of control.
With O=S(=O)(N=N/C=C1\C=CC=CN1O)c1cccs1 the T/C [5] was 101 % of control, the T/C [6] was 104 % of control and the T/C [7] was 114 % of control.
With CC(=O)CC(=O)CCC(=O)O the T/C [9] was 97 % of control, the T/C (dose: 50.0 mg/kg/injection, vehicle: saline) was 97 % of control and the T/C (dose: 100.0 mg/kg/injection, vehicle: saline) was 93 % of control.
With Cc1cc(N=NC(N)=S)c2ccccc2c1O the T/C [10] was 94 % of control, the T/C [4] was 86 % of control and the T/C [5] was 87 % of control.
For O=C(Oc1ccc(-c2ccc(Br)cc2)cc1)c1ccco1, the T/C (dose: 0.78 mg/kg/injection, vehicle: saline with Tween-80) was 107 % of control, the T/C (dose: 1.56 mg/kg/injection, vehicle: saline with Tween-80) was 106 % of control and the T/C [10] was 102 % of control. For the same compound, the T/C [4] was 111 % of control and 100 % of control, the T/C [6] was 92 % of control and the T/C [7] was 97 % of control.
In the case of CNC(=O)OCc1c(COC(=O)NC)c(-c2ccc(Cl)c(Cl)c2)n2c1Cc1ccccc1C2, the T/C (dose: 25.0 mg/kg/injection, vehicle: distilled water + Tween-80) is reported as 165 % of control, the T/C (dose: 50.0 mg/kg/injection, vehicle: distilled water + Tween-80) is reported as 194 % of control and 203 % of control and the T/C (dose: 100.0 mg/kg/injection, vehicle: distilled water + Tween-80) is reported as 92 % of control.
For COc1cccc2c1C(=O)c1c(O)c3c(c(O)c1C2=O)C[C@@](O)(/C(C)=N\O)C[C@@H]3OC1CC(N)C(O)C(C)O1 (stereo partly specified), the T/C (dose: 1.5 mg/kg/injection, vehicle: saline) was 160 % of control, the T/C (dose: 3.13 mg/kg/injection, vehicle: water) was 150 % of control and the T/C (dose: 6.0 mg/kg/injection, vehicle: saline) was 164 % of control. For the same compound, the T/C (dose: 6.25 mg/kg/injection, vehicle: water) was 182 % of control, the T/C (dose: 12.0 mg/kg/injection, vehicle: saline) was 217 % of control and the T/C (dose: 12.5 mg/kg/injection, vehicle: water) was 178 % of control. The T/C (dose: 24.0 mg/kg/injection, vehicle: saline) was 204 % of control.
In the case of CCOc1ccc(NC(=O)C(C(C)N2CCCCC2)N2CCCCC2)cc1 (stereo unspecified), the T/C [5] is reported as 102 % of control, the T/C [6] is reported as 94 % of control and the T/C [7] is reported as 93 % of control.
For CN1CCN(c2ccc3nc(-c4ccc5nc(-c6ccc(O)cc6)[nH]c5c4)[nH]c3c2)CC1, the T/C (dose: 6.25 mg/kg/injection, vehicle: saline) was 95 % of control, the T/C (dose: 12.5 mg/kg/injection, vehicle: saline) was 99 % of control and the T/C [9] was 89 % of control.
